Results as given in US10683553B2, “Method for determining sensitivity to simultaneous inhibitor against PARP and Tankyrase” (THE ASAN FOUNDATION, priority 2015, dated 2020).

Assays:
Format in all cases: cell-based
[1] = tested on: HCT116 human colon cancer cell line; test: Trypan blue apoptosis after siRNA knockdown of DNA repair genes; settings: HCT116 p53 normal, LIG4 siRNA knockdown; 25 μM and 50 μM, 48 hours
Source text: In order to analyze the degree of apoptosis of Compound A, which is a novel PARP/Tankyrase simultaneous inhibitor, depending on the presence or absence of the p53 gene and the presence or absence of the DNA repair gene, the present inventors reduced gene expression by an ATR, XLF, XRCC4 and LIG4 siRNA knockdown method known as a DNA repair gene in the human colon cancer cell line HCT116 in which the p53 normal gene is present, and then treated with Compound A, which is a novel PARP/Tankyrase simultaneous inhibitor. Then, the number of cells was measured by trypan blue staining assay to confirm the degree of apoptosis. As the experimental conditions and methods, the HCT116 p53 null human colon cancer cell line in which the p53 gene is normal and the HCT116 and p53 gene are deficient is cultured in RPMI1640 (10% FBS, 1% penicillin/streptomycin), and 1×10^5 per well was cultured at 37° C. for 24 hours in a 60 mm plate. ATR, XLF, XRCC4 and LIG4 (SEQ ID NO: 4; ATR siRNA 5′-GAGUUCUCAGAAGUCAACC-3′, SEQ ID NO: 5; XLF siRNA 5′-[…]-3′, SEQ ID NO: 6; XRCC4 siRNA 5′-[…]-3′, SEQ ID NO: 7; LIG4 siRNA 5′-GGGAGUGUCUCAUGUAAUA-3′) were infused into cells by means of Lipofectamin 2000 (Invitrogen), and knocked down at 37° C. for 48 hours. […] After 48 hours of culturing, the number of cells was measured by trypan blue staining and the degree of apoptosis was confirmed.

[2] = tested on: SW620 human colon cancer cell line; test: Trypan blue apoptosis with overexpressed mutant LIG4 (G833A or T1704C); settings: SW620 overexpressing LIG4 mutant G833A or T1704C vs control group (empty); 25 μM and 50 μM, 48 hours
Source text: In order to analyze the degree of apoptosis of Compound A, which is a novel PARP/Tankyrase simultaneous inhibitor, when the p53 genotype is a mutant type and an LIG4 genotype is a mutant type, the present inventors treated a novel PARP/Tankyrase simultaneous inhibitor, Compound A, and the competitive drug PARP inhibitor, olaparib, while overexpressing an LIG4 mutant type in the SW620 human colon cancer cell line in which the p53 gene is a mutant type and an LIG4 genotype is a normal type. Then, the number of cells was measured by trypan blue staining assay to confirm the degree of apoptosis. The conditions and methods of the above experiment were as follows: SW620 human colon cancer cell line in which the p53 gene is a mutant type and the LIG4 gene is a normal type was cultured in RPMI1640 (10% FBS, 1% penicillin/streptomycin) and cultured in a 60 mm plate at 1×10^5 per well for 24 hours at 37° C. G833A or T1704C plasmid DNA in which an LIG4 genotype is a mutant type was infused into cells by means of Lipofectamin 2000 (Invitrogen), and then overexpressed at 37° C. for 48 hours. Then, the cells were treated with each of 25 μM and 50 μM of Compound A, which is a novel PARP/Tankyrase simultaneous inhibitor and olaparib, a competitive drug PARP inhibitor. After 48 hours of culturing, the number of cells was measured by trypan blue staining and the degree of apoptosis was confirmed.

[3] = tested on: HCT8 human colon cancer cell line; test: as above; settings: HCT8 overexpressing LIG4 mutant G833A or T1704C vs control group (empty); 25 μM and 50 μM, 48 hours
Source text: In order to analyze the degree of apoptosis of Compound A, which is a novel PARP/Tankyrase simultaneous inhibitor, when the p53 genotype is a normal type and an LIG4 genotype is a mutant type, the present inventors treated a novel PARP/Tankyrase simultaneous inhibitor, Compound A, and the competitive drug PARP inhibitor, olaparib, while overexpressing an LIG4 mutant type in the HCT8 human colon cancer cell line in which the p53 gene is a normal type and an LIG4 genotype is a normal type. Then, the number of cells was measured by trypan blue staining assay to confirm the degree of apoptosis. […] After 48 hours of culturing, the number of cells was measured by trypan blue staining and the degree of apoptosis was confirmed.
The present inventors conducted an experiment in the same manner as Example 9 to analyze the degree of apoptosis and DNA damage of Compound A, which is a novel PARP/Tankyrase simultaneous inhibitor, when the p53 genotype is a mutant type and an LIG4 genotype is a mutant type. The number of cells was measured by trypan blue staining method and the degree of apoptosis was confirmed. […] It was washed with TBS-T buffer three times for 15 minutes to induce luminescence of PDVF membrane using ECL buffer solution to develop protein expression on each anti-body using an X-ray film.

CCOc1cc(CN(C)C)cc2[nH]c(=O)c3c(c12)NCCC3 [Compound A, 8-[(dimethylamino)methyl]-10-ethoxy-1,2,3,4-tetrahydrobenzo[h][1,6]naphthyridin-5(6H)-one]
degree of apoptosis (trypan blue cell count) [1]: apoptosis is significantly increased | degree of apoptosis (trypan blue cell count) [2]: no change in the apoptosis | degree of apoptosis (trypan blue cell count) [3]: apoptosis was increased
